# Laboratory results taken from patent publication US12419918B2, “Pediococcus acidilactici CCFM6432 for alleviating depression, food fermented thereby and application thereof” (Jiangnan University, priority 2019, dated 2025).
# Assays:
# depressed mice = assay: Elevated plus-maze test; format: in vivo, C57BL/6J mice; details: chronic unpredictable mild stress mice; gavage; activities within 10 min
# Protocol: 32 6-week-old male C57BL/6J mice were selected. After one week of adaptation to the environment, the mice were randomly divided into four groups according to body weight: a normal control group, a depression model group, a drug intervention group, and a CCFM6432 intervention group, each containing 8 mice.
# Chronic unpredictable stress depression mouse model: 1-2 kinds of stimuli were randomly performed every day, and the performance time of stimuli every day was determined randomly to avoid the circadian rhythm. Each method was used for not more than three times, and the stimuli were performed for five weeks. The stimuli include: (1) fasting for 24 h; (2) water deprivation+empty bottle stimulus for 24 h; (3) tail pinching for 3 min; (4) wet padding for 24 h; (5) immobilization for 1-2 h; (6) 45° tilted cage for 24 h; (7) continuous lighting for 24 h; (8) no padding for 24 h; (9) forced swim for 15 min; and (10) separation for 24 h. […]
# At the beginning of the test, a mouse was placed into a maze from the central grid facing a closed arm, and its activities within 10 min were recorded. […] The proportion of time spent in the open arms, the proportion of entries in the open arms, and the total number of entries in the elevated plus maze were calculated. […]
# [1] = test system: regulatory T cells (Tregs); assay: Regulatory T cells (CD4+CD25+Foxp3+) in spleen by flow cytometry; format: in vivo; details: chronic stress mice; sixth weekend
# Protocol: (§1) The mice in Example 2 were euthanized at the sixth weekend. A fresh mouse spleen (about 50 mg) was taken, 5 mL of a pre-chilled PBS buffer was added, and the mouse spleen was cut, ground, and filtered with a 200-mesh nylon sieve to obtain a tissue cell suspension. 2 mL of an erythrocyte lysate was added for lysis for 4 min, and the lysate was removed by centrifugation at room temperature (300×g, 5 min). The obtained cell precipitate was washed with pre-cooled PBS twice, and resuspended with a certain amount of PBS to obtain a lymphocyte suspension. Antibody labeling of regulatory T cells (Tregs) was performed in accordance with the instructions of an eBioscience Mouse Regulatory T cell Staining Kit (Invitrogen Corporation, Carlsbad, CA, USA). The Tregs (CD4+CD25+Foxp3+) were detected by flow cytometry. The contents of IL-1β, IL-6 and TNF-α in the serum were detected with an ELISA kit.
# IL-1β, IL-6 and TNF-α = IL-1β, IL-6 and TNF-α in the serum by ELISA kit; format: in vivo; details: chronic stress mice; sixth weekend
# Protocol: as §1
# intestinal microbiome = assay: 16S rDNA sequencing of the intestinal microbiome from mouse feces; format: in vivo; details: depressed mice feces
# Text: Fresh feces of the mice in Example 2 was taken at the sixth weekend, and total DNA was extracted from the mouse feces sample using an MP feces kit. Specific operation steps are as follows, mainly referring to the kit instructions. The mouse fecal genome was used as a template, V3-V4 fragments of 16S rDNA were amplified using a forward primer 520F (5′-AYTGGGYDTAAAGNG-3′) and a reverse primer 802R (5′-TACNVGGGTATCTAATCC-3′) as primers, and the length of a target fragment was about 247 bp. After the PCR reaction, all PCR samples in which target bands were observed were electrophoresed again, a 2.0% agarose gel was prepared, and electrophoresis was performed at 120 V for 40 min. […] The DNA concentration of the sample was measured according to a Qubit DNA3.0 kit, then a library was constructed according to a TurSeq DNA LT Sample Preparation Kit and instructions thereof, and finally determination was performed on an Illumina Miseq sequencer according to a MiSeq Regent Kit and instructions thereof. […] The sequences with the similarity greater than 97% were defined as a taxonomic unit (Operational Taxonomic Unit, OTU), and the species was determined by a Ribosomal Database Project (RDP) Naïve Bayesclassifier. The α-diversity and β-diversity of the sample were calculated to assess the bacterial diversity of the sample. […] The β-diversity was assessed by principal co-ordinates analysis (PCoA) (FIG. 9C). […]
structure (smiles),measurement,setting,value
"CNCCC(Oc1ccc(C(F)(F)F)cc1)c1ccccc1 (stereo not shown) [Fluoxetine, fluoxetine]",entries and time spent in the open arms,depressed mice,had no effect
same,immune state (proportion of Tregs in the spleen),[1],could significantly improve the immune state
same,"degree of inflammation (IL-1β, IL-6 and TNF-α in the serum)","IL-1β, IL-6 and TNF-α",reduce the degree of inflammation
same,"structure of the intestinal microbiome (β-diversity, PCoA)",intestinal microbiome,could normalize the structure of the intestinal microbiome
